Experimental data: patent US20260183262A1, “RNA-BINDING MOTIF PROTEIN 39 (RBM39) DEGRADERS FOR TREATMENT OF CANCERS” (RECURSION PHARMACEUTICALS, INC., priority 2022, published 2026)

Columns and labels:
[1] = tested on: OVCAR3 CDX model; assay: Efficacy in HRD negative OVCAR3 CDX model; format: in vivo, mouse; conditions: BALBc/nude mice, E7820 50 mg/kg PO BID, olaparib 100 mg/kg PO QD, 21 days
Description: • Cell culture: OVCAR3 is a human ovarian cancer cell line that is BRCA-proficient and HRD negative. Crown biosciences in China acquired this cell line for in vivo testing. OVCAR3 human ovarian tumor cells were maintained in vitro with RPMI1640 supplemented with 20% fetal bovine serum and 10 μg/ml insulin at 37° C. in an atmosphere of 5% CO2 in air. The cells in exponential growth phase were harvested and quantitated by cell counter before tumor inoculation. • Tumor Inoculation: Each mouse was inoculated subcutaneously in the right upper flank region OVCAR-3 tumor cells (1×10^7 cells) with matrigel in 0.1 ml of PBS for tumor development. • Randomization: The randomization started from when the mean tumor size reached approximately 88 mm^3. […] Tumor volumes were measured three per week after randomization in two dimensions using a caliper, and the volume was expressed in mm^3 using the formula: V=(L×W×W)/2, where Vis tumor volume, L is tumor length (the longest tumor dimension) and W is tumor width (the longest tumor dimension perpendicular to L). % TGI was calculated using the formula % TGI=(TV vehicle−TV treatment)/(TV vehicle−TV initial)*100 for all mice (Wong, H, et al. Clin Cancer Res., 2012, 18(14): 3846-3855) • Treatment Arms: 10 mice per arm were treated with either Vehicle, olaparib, E7820, E7820 plus olaparib, or paclitaxel for 21 days. […]

[2] = tested on: MCL1; assay: IHC protein expression on OVCAR3 tumor samples: MCL1; format: in vivo, human; conditions: OVCAR3 tumor samples from Example 1 CDX study
Description: • Sample Collection: 16 tumor samples were collected across the vehicle, olaparib, E7820 single agent, and paclitaxel arms from the in vivo OVCAR3 CDX study described in Example 1
• 1) Collect fresh specimens and place in 10% NBF (neutral-buffered formalin; fixative volume/tissue, 10˜20 folds), fix at room temperature for 24 hours. • 2) Trim the fixed tissue at the thickness of 3-5 mm. • 3) Move the tissue into the Embedding box, and snap the box into deionized water for 30 minutes, change water twice every 30 minutes. • 4) After washing, the fixed tissues are transferred to the LEICA ASP300S Vacuum Tissue Processor for dehydration.
• All stained sections are scanned with NanoZoomer-HT 2.0 Image system for 40× magnification. High resolution picture for whole section is generated and further quantification analyzed by HALO. All the scanned images are analyzed by HALO™ platform. The whole slide image is analyzed and necrosis and stroma area are excluded, only viable tumor area is scored. The intensity of specific staining is scored at four levels, 0 (negative), 1+(weak staining), 2+(medium staining), 3+(strong staining). The percentages of tumor cells at different intensity levels are evaluated with H-score. H-Score=(% at 0)×0+(% at 1)×1+(% at 2)×2+(% at 3)×3 (H-Score range is 0 to 300).

[3] = tested on: OVCAR3 cells; assay: CellTiter-Glo cell viability assay in OVCAR3 cell line; format: cell-based, human; conditions: 72 h
Description: • Cell culture: OVCAR3 is a human ovarian cancer cell line that is BRCA-proficient and HRD negative. Pharmaron in China acquired this cell line for in vitro testing. OVCAR3 human ovarian tumor cells were maintained in vitro with RPMI-1640 (Glutamax)+0.01 mg/ml insulin+20% FBS+1% PS • Cell Seeding: Cells were harvested from flask into cell culture medium and counted. Cells were diluted with culture medium for below cell densities and 8000 OVCAR cells were plated per well in a 384-well plate (PerkinElmer, Cat. #6007680), using electronic multichannel pipette in 40 μL. For the low control wells, 40 μL PBS was added. […] Plates were covered with lid and spun at 1 min/1000 rpm followed by incubation overnight at 37° C., 5% CO2. • Compound Time: SR4835 and THZ531 were dissolved at 10 mM stock solution and diluted in a 3-fold, 9-point diluted series. Cells were treated with 40 nL of SR4835 and THZ531 by plate reformat Echo550 followed by incubation at 37° C. for 72 h in a CO2 incubator. For the high control, 40 nL DMSO was added. • Readout: CellTiter-Glo@ 2.0 Reagent (Promega, G9242) was removed from the fridge and equilibrated at RT(23° C.) for 60 minutes. Plates were removed from the incubator and allowed to equilibrate to room temperature, for at least 15 minutes. 30 μL CellTiter-Glo® 2.0 Reagent was added to the assay plates and allowed to sit for 30 minutes prior to reading. Luminescence signal was read on Envision. • Calculation: Cell viability (% DMSO control) was calculated using the following equation
• Cell culture: OVCAR3 is a human ovarian cancer cell line that is BRCA-proficient and HRD negative. Pharmaron in China acquired this cell line for in vitro testing. OVCAR3 human ovarian tumor cells were maintained in vitro with RPMI-1640 (Glutamax)+0.01 mg/ml insulin+20% FBS. • Cell Seeding: Cells were harvested from flask into cell culture medium and counted. Cells were diluted with culture medium for below cell densities and 8000 OVCAR cells were plated per well in a 384-well plate (PerkinElmer, Cat. #6007680), using electronic multichannel pipette in 50 μL For the low control wells, 50 μL PBS was added. […] Cells were treated with E7820 and indisulam by plate reformat Echo software and spun 1 min/1000 rpm followed by incubation at 37° C. for 72 h in a CO2 incubator. • Readout: CellTiter-Glo@ 2.0 Reagent (Promega, G9242) was removed from the fridge and equilibrated at RT (23° C.) for 60 minutes. […] 40 μL CellTiter-Glo® 2.0 Reagent was added to the assay plates, and spun 1 min/1000 rpm, then allowed to sit for 20 minutes prior to reading. Luminescence signal was read on Envision. • Calculation: Cell viability (% DMSO control) was calculated using the following equation

Cc1ccc(NS(=O)(=O)c2cccc(C#N)c2)c2[nH]cc(C#N)c12 [Compound E7820]
tumor volume [1]: decreased | MCL1 protein expression (IHC) [2]: no changes | cell viability [3]: minimal effect on cell viability
